# Experimental data as given in patent US10745410B2, “Substituted [5,6]cyclic-4(3H)-pyrimidinones as anticancer agents” (ZENJI RESEARCH LABORATORIES, priority 2017, dated 2020).
# Counter-ions that a name gives are not always drawn.
# Columns and labels:
# CDC7/DBF4 = CDC7/DBF4 (Homo sapiens (Human), UniProt O00311); test: CDC7 biochemical assay (ADP-Glo, MCM2 substrate); details: ATP 500 uM; MCM2 400 ug/ml; CDC7/DBF4 200 nM; 180 mins at 27° C.; read-out: CDC7 enzyme IC50 (nm)
# Method: Biochemical Assay Method N-terminal GST-tagged CDC7 and DBF4 full-length proteins were co-expressed by baculovirus insect expression (BV) system and purified by GST affinity column. Used MCM2 protein as substrate, N-terminal His tag MCM2 was expressed by E. coli and purified by His affinity column. Biochemical assay was tested in the U-shaped bottom 384 plate (corning, #4514) with a final volume of […] at 27° C. The concentration of CDC7 was optimized by the enzyme titration experiment. CDC7 kinase was diluted in assay buffer (40 mM Tris.HCl pH 7.25, 100 ug/mL BSA, and 20 mM MgCl2) to get 2.4× enzyme solutions. Compounds were dissolved in 10 mM DMSO, and series diluted in DMSO from 0.3 mM to 0.3 nM (5 concentration pts); All dilutions were diluted 30× in assay buffer to get 6× compounds solutions. MCM2 Substrate and ATP were diluted to 2.4× mixed solution. Add 2 ul test compound solution to 384 assay plate, then add 5 ul substrate/ATP mixed solution, at last add 5 ul enzyme solution, incubate at 27° C. for 180 mins. Transfer 5 ul reaction solution to another 384 assay plate, then add 5 ul ADP-Glo™ Reagent (Promega) to each well and incubate at 27° C. for 40 mins; Add 10 ul Kinase Detection Reagent (Promega) to each well and incubate at 27° C. for 30 mins. 10 uM CDC7-3 compound was used as 100% inhibition while 100% DMSO control was used as 0% inhibition. Each test has three replications at least. The final concentration of the reagents: ATP was 500 uM; MCM2 was 400 ug/ml; CDC7/DBF4 was 200 nM. The data were obtained by TECAN F200 and calculated by GraphPad Prism 5.0; IC50 values were adjusted by Dose-response-Inhibition-Variable slope model.
# COLO 205 cell line = test: Proliferation experiment in COLO 205 cell line (CellTiter-Glo); format: cell-based; details: Homo sapiens, COLO 205 cells, 72 hours
# Method: Proliferation experiment in COLO 205 cell line Tissue Culture. Cells were maintained in 10% FBS (Gibco #10099141)/RPMI 1640 (Gibco # A10491). The cells were harvested with 0.25% Trypsin/EDTA (Amresco #9002077), re-suspended in 10% FBS/RPMI 1640 and plated at 8,000 cells per well in 90 ul of media in a 96-well black plate with clear bottoms (Corning #3603). The cells were allowed to incubate overnight in a 37° C., 5% CO2 humidified tissue culture incubator. A 10-point test compound curve was prepared by serial diluting a 10 mM stock 1:3 in DMSO in a 384-well compound plate (costar #3656). The serial diluted compounds were transferred to the plate containing medium for further dilution. The final concentration was from 10 uM to 0.000508 uM. The serial diluted compounds were transferred to the plate containing cells by using a volley ([…]) and the cells were placed back in the incubator for 72 hours. Luminescent detection was carried out with CellTiter-Glo® Luminescent Cell Viability Assay (promega # G7572). Signal was read on TECAN Infinite F200.
# Chain of CDC7/DBF4 (O00311 whole entry): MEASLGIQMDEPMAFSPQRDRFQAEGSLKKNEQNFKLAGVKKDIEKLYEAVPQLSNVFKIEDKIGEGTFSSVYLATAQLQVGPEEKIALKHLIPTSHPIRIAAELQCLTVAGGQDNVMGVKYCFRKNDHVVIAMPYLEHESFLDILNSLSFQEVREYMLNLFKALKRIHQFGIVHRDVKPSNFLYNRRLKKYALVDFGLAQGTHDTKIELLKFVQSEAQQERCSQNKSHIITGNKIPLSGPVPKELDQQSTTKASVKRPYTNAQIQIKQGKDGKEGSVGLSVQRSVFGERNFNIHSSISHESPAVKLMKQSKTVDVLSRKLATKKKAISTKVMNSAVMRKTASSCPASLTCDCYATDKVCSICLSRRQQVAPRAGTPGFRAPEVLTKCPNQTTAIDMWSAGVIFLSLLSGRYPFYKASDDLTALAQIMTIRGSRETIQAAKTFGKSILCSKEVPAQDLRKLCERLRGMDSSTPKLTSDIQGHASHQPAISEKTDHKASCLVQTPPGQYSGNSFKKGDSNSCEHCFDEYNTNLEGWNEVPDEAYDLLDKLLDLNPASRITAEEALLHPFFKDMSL
# Chain of CDC7/DBF4 (Q9UBU7 whole entry partner): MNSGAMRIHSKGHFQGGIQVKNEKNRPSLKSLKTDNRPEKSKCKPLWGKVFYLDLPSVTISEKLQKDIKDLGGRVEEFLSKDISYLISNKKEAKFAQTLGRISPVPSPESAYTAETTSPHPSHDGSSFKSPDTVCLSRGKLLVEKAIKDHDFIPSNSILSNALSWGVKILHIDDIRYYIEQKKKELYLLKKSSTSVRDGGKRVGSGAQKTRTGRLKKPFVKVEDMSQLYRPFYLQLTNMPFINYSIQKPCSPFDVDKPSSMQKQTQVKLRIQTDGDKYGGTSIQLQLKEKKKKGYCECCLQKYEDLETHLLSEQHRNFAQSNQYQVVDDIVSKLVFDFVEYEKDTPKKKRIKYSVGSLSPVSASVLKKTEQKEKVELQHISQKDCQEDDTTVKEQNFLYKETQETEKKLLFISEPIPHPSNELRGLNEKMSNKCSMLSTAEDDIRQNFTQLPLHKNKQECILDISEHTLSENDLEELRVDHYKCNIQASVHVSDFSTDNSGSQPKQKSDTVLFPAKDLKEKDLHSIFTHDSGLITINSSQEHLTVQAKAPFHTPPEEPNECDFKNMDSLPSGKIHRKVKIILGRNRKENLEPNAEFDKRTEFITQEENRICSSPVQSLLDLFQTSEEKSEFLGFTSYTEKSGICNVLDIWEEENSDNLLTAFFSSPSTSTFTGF
Compound,IC50 (CDC7/DBF4),GI50 (COLO 205 cell line)
"C[C@H](N)c1nc2cc(-c3ccncc3F)sc2c(=O)[nH]1 [Compound 21, (S)-2-(1-aminoethyl)-6-(3-fluoropyridin-4-yl)thieno[3,2-d]pyrimidin-4(3H)-one hydrochloride]",0.1 to 1 µM,0.1 to 1 µM
"Cc1cc(-c2cc3nc([C@@H](N)C(C)C)[nH]c(=O)c3s2)ccn1 [Compound 7b, (S)-2-(1-amino-2-methylpropyl)-6-(2-methylpyridin-4-yl)thieno[3,2-d]pyrimidin-4(3H)-one hydrochloride]",–,1 to 10 µM
"CC(C)[C@@H](N)c1nc2cc(-c3ccncc3F)sc2c(=O)[nH]1 [Compound 29, (R)-2-(1-amino-2-methylpropyl)-6-(3-fluoropyridin-4-yl)thieno[3,2-d]pyrimidin-4(3H)-one hydrochloride]",1 to 10 µM,1 to 10 µM
"CC(C)[C@H](N)c1nc2cc(-c3cnoc3)sc2c(=O)[nH]1 [Compound 7e, (S)-2-(1-amino-2-methylpropyl)-6-(isoxazol-4-yl)thieno[3,2-d]pyrimidin-4(3H)-one hydrochloride]",> 10 µM,> 10 µM
"CC(C)[C@H](N)c1nc2cc(-c3ccnc(Cl)c3)sc2c(=O)[nH]1 [Compound 7a, (S)-2-(1-amino-2-methylpropyl)-6-(2-chloropyridin-4-yl)thieno[3,2-d]pyrimidin-4(3H)-one hydrochloride]",–,1 to 10 µM
"CC(C)[C@H](N)c1nc2cc(-c3c[nH]cn3)sc2c(=O)[nH]1 [Compound 45, (S)-2-(1-amino-2-methylpropyl)-6-(1H-imidazol-4-yl)thieno[3,2-d]pyrimidin-4(3H)-one hydrochloride]",> 10 µM,> 10 µM
"CC(C)[C@H](N)c1nc2cc(N3CCNCC3)sc2c(=O)[nH]1 [Compound 67, (S)-2-(1-amino-2-methylpropyl)-6-(piperazin-1-yl)thieno[3,2-d]pyrimidin-4(3H)-one hydrochloride]",1 to 10 µM,> 10 µM
"CC(C)[C@H](N)c1nc2cc(-c3ccncn3)sc2c(=O)[nH]1 [Compound 53, (S)-2-(1-amino-2-methylpropyl)-6-(pyrimidin-4-yl)thieno[3,2-d]pyrimidin-4(3H)-one hydrochloride]",0.1 to 1 µM,0.1 to 1 µM
"CN[C@H](c1nc2cc(-c3ccnc(F)c3)sc2c(=O)[nH]1)C(C)C [Compound 36, (S)-6-(2-fluoropyridin-4-yl)-2-(2-methyl-1-(methylamino)propyl)thieno[3,2-d]pyrimidin-4(3H)-one hydrochloride]",–,1 to 10 µM
"CC(C)[C@H](N)c1nc2cc(-c3cc[nH]c3)sc2c(=O)[nH]1 [Compound 65, (S)-2-(1-amino-2-methylpropyl)-6-(1H-pyrrol-3-yl)thieno[3,2-d]pyrimidin-4(3H)-one hydrochloride]",> 10 µM,> 10 µM
"CC(C)[C@H](N)c1nc2cc(-c3cn[nH]n3)sc2c(=O)[nH]1 [Compound 58, (S)-2-(1-amino-2-methylpropyl)-6-(2H-1,2,3-triazol-4-yl)thieno[3,2-d]pyrimidin-4(3H)-one hydrochloride]",1 to 10 µM,1 to 10 µM
"CC(C)[C@H](N)c1nc2cc(-c3cc(F)ncc3F)sc2c(=O)[nH]1 [Compound 7d, (S)-2-(1-amino-2-methylpropyl)-6-(2,5-difluoropyridin-4-yl)thieno[3,2-d]pyrimidin-4(3H)-one hydrochloride]",0.1 to 1 µM,0.1 to 1 µM
"CC[C@H](N)c1nc2cc(-c3ccncc3F)sc2c(=O)[nH]1 [Compound 13b, (S)-2-(1-aminopropyl)-6-(3-fluoropyridin-4-yl)thieno[3,2-d]pyrimidin-4(3H)-one hydrochloride]",< 0.1 µM,< 0.1 µM
"N[C@H](c1nc2cc(-c3ccncc3F)sc2c(=O)[nH]1)C1CC1 [Compound 25, (S)-2-(amino(cyclopropyl)methyl)-6-(3-fluoropyridin-4-yl)thieno[3,2-d]pyrimidin-4(3H)-one hydrochloride]",< 0.1 µM,< 0.1 µM
"CC(C)[C@H](N)c1nc2cc(-c3cc[nH]n3)sc2c(=O)[nH]1 [Compound 7c, (S)-2-(1-amino-2-methylpropyl)-6-(1H-pyrazol-3-yl)thieno[3,2-d]pyrimidin-4(3H)-one hydrochloride]",1 to 10 µM,> 10 µM
"CC(C)[C@H](N)c1nc2cc(-c3ccnnc3)sc2c(=O)[nH]1 [Compound 49, (S)-2-(1-amino-2-methylpropyl)-6-(pyridazin-4-yl)thieno[3,2-d]pyrimidin-4(3H)-one hydrochloride]",1 to 10 µM,1 to 10 µM
"CC(C)(N)c1nc2cc(-c3ccnc(F)c3)sc2c(=O)[nH]1 [Compound 39, 2-(2-aminopropan-2-yl)-6-(2-fluoropyridin-4-yl)thieno[3,2-d]pyrimidin-4(3H)-one hydrochloride]",1 to 10 µM,1 to 10 µM
"CC[C@H](N)c1nc2cc(-c3ccnc(F)c3)sc2c(=O)[nH]1 [Compound 13a, (S)-2-(1-aminopropyl)-6-(2-fluoropyridin-4-yl)thieno[3,2-d]pyrimidin-4(3H)-one hydrochloride]",–,0.1 to 1 µM
